{
  "source": "patent US20020156265A1",
  "about": "“DNA encoding a GABABR2 polypeptide and uses thereof” (priority 1998, published 2002)",
  "key": {"GABABR1": {"target": "GABABR1 (Rattus norvegicus, UniProt Q9Z0U4)", "sequence (Q9Z0U4 1-844 isoform Q9Z0U4-3)": "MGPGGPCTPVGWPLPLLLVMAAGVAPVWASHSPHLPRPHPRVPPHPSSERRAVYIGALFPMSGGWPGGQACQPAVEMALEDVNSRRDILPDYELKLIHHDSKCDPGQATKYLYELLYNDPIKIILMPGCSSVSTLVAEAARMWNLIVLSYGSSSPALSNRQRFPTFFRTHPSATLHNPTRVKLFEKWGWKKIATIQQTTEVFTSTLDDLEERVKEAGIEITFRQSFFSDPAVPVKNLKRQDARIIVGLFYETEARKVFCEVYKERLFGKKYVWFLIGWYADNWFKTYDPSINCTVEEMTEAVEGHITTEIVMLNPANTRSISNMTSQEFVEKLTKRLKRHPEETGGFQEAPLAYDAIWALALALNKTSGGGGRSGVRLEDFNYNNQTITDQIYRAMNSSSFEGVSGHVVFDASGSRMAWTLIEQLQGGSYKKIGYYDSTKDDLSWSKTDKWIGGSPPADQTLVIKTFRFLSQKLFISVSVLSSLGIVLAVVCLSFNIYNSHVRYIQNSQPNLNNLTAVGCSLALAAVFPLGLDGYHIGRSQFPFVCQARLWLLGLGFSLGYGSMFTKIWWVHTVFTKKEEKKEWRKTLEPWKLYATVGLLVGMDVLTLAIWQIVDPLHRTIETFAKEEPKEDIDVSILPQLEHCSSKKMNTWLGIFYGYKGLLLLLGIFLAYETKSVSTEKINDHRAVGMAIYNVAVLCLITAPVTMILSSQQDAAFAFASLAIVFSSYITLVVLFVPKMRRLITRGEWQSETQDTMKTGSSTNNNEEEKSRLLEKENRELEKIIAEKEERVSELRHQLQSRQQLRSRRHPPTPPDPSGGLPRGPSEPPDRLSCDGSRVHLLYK", "assay": "Radioligand binding, [3H]-CGP54626, membranes of COS-7 or HEK293 cells expressing GABABR1", "settings": "for pKi: Displacement of [3H]-CGP54626 from COS-7 cells expressing GABABR1", "quoted_text": "(§1) Transfected cells from culture flasks were scraped into 5 mL of Tris-HCl, 5 mM EDTA, pH 7.5, and lysed by sonication. The cell lysates were centrifuged at 1000 rpm for 5 min. at 4° C., and the supernatant was centrifuged at 30,000×g for 20 min. at 4° C. The pellet was suspended in binding buffer (50 mM Tris-HCl, 2.5 mM CaCl2 at pH 7.5 supplemented with 0.1% BSA, 2 μg/mL aprotinin, 0.5 mg/mL leupeptin, and 10 μg/mL phosphoramidon). […] In equilibrium saturation binding assays membrane preparations were incubated in the presence of increasing concentrations of labeled compound. […] Binding reaction mixtures were incubated for 1 hr at 30° C., and the reaction was stopped by filtration through GF/B filters treated with 0.5% polyethyleneimine, using a cell harvester. […] Data were analyzed by a computerized non-linear regression program. Non-specific binding was defined as the amount of radioactivity remaining after incubation of membrane protein in the presence of excess unlabeled compound. Protein concentration may be measured by the Bradford method using Bio-Rad Reagent, with bovine serum albumin as a standard."}, "GABABR2": {"target": "T1, GABABR2 (Rattus norvegicus, UniProt O88871)", "T1 sequence (O88871 41-940)": "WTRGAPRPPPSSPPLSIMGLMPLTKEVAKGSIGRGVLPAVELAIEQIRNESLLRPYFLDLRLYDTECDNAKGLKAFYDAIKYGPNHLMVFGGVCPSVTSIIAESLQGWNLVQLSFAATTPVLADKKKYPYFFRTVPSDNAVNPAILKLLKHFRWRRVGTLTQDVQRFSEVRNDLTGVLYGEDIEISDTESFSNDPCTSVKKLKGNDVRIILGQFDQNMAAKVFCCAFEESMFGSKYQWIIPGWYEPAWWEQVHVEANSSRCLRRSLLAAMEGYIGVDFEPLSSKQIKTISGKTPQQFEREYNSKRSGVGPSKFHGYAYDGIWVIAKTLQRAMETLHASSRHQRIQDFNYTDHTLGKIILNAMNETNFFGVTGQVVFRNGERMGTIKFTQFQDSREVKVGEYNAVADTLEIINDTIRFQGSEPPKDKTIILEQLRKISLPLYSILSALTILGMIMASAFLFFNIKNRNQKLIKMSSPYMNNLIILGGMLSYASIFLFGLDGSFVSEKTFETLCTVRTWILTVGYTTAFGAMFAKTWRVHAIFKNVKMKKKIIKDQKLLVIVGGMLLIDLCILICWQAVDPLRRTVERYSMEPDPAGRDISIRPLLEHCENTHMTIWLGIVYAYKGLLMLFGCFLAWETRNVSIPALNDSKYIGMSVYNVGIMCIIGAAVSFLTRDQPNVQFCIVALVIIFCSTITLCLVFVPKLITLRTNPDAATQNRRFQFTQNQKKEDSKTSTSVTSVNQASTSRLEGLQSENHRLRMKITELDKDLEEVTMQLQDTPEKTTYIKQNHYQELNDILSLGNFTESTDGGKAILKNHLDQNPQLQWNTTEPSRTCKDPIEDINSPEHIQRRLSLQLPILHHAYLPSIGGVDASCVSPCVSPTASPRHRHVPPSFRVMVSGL", "assay": "Radioligand binding, membranes of HEK293 or COS-7 cells expressing GABABR2", "quoted_text": "as §1"}, "[1]": {"settings": "rhesus monkeys; cited from earlier work"}, "[2]": {"settings": "aged rats; cited from earlier work"}, "GABABR1b/GABABR2 [3]": {"target": "T2, GABABR1b/GABABR2 (Rattus norvegicus, UniProt Q9Z0U4)", "T2 sequence (Q9Z0U4 1-844 isoform Q9Z0U4-3, one chain of several)": "as the sequence (Q9Z0U4 1-844 isoform Q9Z0U4-3) above", "assay": "GIRK currents in HEK-293 cells transiently transfected with GABABR1b/GABABR2 + GIRKs (whole-cell patch clamp)", "assay_type": "cell-based", "parameters": "ligated to a PCR fragment containing the missing base pairs to obtain the full length clone; expressed in transfected cells", "settings": "HEK-293 doubly transfected cells; CGP55845 at 1 μM, Ba++ 100 μM", "quoted_text": "The ability of the rat GABABR1 and GABABR2 genes to activate GIRK currents in mammalian cells was investigated by transient transfection of HEK-293 cells followed by voltage clamp analysis of currents. HEK-293 cells were maintained in Dulbecco's modified Eagle medium (DMEM) plus 10% (v/v) bovine calf serum, 2% L-glutamine, 50 U/ml penicillin, and 50 μg/ml streptomycin and were incubated at 37° C. in a humidified 5% CO2 atmosphere. Cells were harvested twice each week by treatment with 0.25% trypsin/1 mM EDTA in Hank's Salts and re-seeded at 20% of their original density either into 75 cm^2 flasks (for passaging) or into 35 mm tissue culture dishes (for transfection and electrophysiology experiments).\nHEK-293 cells, 40%-80% confluent, were co-transfected with various combinations of 0.6 ug each of the following plasmids: pGreen Lantern-1 (Gibco/BRL, Gaithersburg, Md.), human GIRK1 (JS1800), human GIRK4 (JS1741), rat GABABR1b (BO58), and rat GABABR2 (BO55). Cells were transiently transfected using the Superfect Transfection Reagent from Qiagen (Valencia, Calif.) according to the manufacturer's instructions. Briefly, 3 μg total plasmid DNA were incubated with 22.5 μl Superfect Reagent in 100 μl serum-free DMEM for 5-10 minutes at room temperature. After addition of 600 μl complete DMEM, the DNA/Superfect mixture was transferred to cells growing in 35 mm dishes coated with poly-D-lysine and incubated for 2-4 hours at 37° C. in a 5% CO2 incubator. Subsequently, the dishes were washed once with phosphate-buffered saline and 2 ml complete DMEM was added. Cells were incubated for 24-72 hours at 37° C. before performing electrophysiological measurements.\nThe whole-cell configuration of the patch-clamp technique was used with glass pipettes having resistances of 2-4 MΩ when filled with the pipette solution. […] GIRK currents were recorded in elevated K^+ solution containing 25 mM K^+ and a correspondingly lower concentration of Na^+. Voltage clamp recordings were made with an EPC-9 amplifier using Pulse+PulseFit software (HEKA Elektronik). Series resistances were kept below 10 Mohm and no attempt was made to provide series resistance compensation. Currents were low-pass filtered at 1 kHz and digitized at a rate of 5 kHz. Unless otherwise noted, experiments were performed at room temperature on cells voltage clamped at a holding potential of −70 mV. […] The time to complete solution exchange was about 100 ms. The bath was constantly perfused at a low rate with control solution."}, "GABABR1/R2": {"target": "GABABR1/R2 (Rattus norvegicus, UniProt Q9Z0U4)", "sequence (Q9Z0U4 1-844 isoform Q9Z0U4-3, one chain of several)": "as the sequence (Q9Z0U4 1-844 isoform Q9Z0U4-3) above", "assay": "Radioligand binding, membranes from cells co-transfected with GABABR1/R2", "quoted_text": "as §1"}, "rat GABABR1/rat GABABR2": {"target": "rat GABABR1/rat GABABR2 (Rattus norvegicus, UniProt Q9Z0U4)", "sequence (Q9Z0U4 1-844 isoform Q9Z0U4-3, one chain of several)": "as the sequence (Q9Z0U4 1-844 isoform Q9Z0U4-3) above", "assay": "Microphysiometry (extracellular acidification) in CHO cells co-expressing rat GABABR1/rat GABABR2", "settings": "100 nM CGP55845, pretreatment with PTX", "quoted_text": "GABABR1, GABABR2 or the combination, were transiently expressed in CHO-K1 cells by liposome mediated transfection according to the manufacturer's recommendations (“LipofectAMINE”, GibcoBRL, Bethesda, Md.), and maintained in Ham's F-12 medium with 10% bovine serum. […] The recording paradigm consisted of a 100 ml/min flow rate and a 30 s flow interruption during which the rate measurement was taken. Challenges involved an 80 s drug exposure just prior to the first post-challenge rate measurement being taken, followed by two additional pump cycles. Acidification rates reported are expressed as a percentage increase of the peak response over the baseline rate observed just prior to challenge."}, "GABABR1b/GABABR2 [4]": {"target": "T2, GABABR1b/GABABR2", "assay": "GIRK currents in Xenopus oocytes expressing GABABR1b/GABABR2 + GIRKs (voltage clamp)", "assay_type": "cell-based", "parameters": "ligated to a PCR fragment containing the missing base pairs to obtain the full length clone; linearized DNA plasmids containing the complete coding region of the gene; expressed in transfected cells; host or cells: Xenopus laevis oocytes, mRNA injection", "settings": "for pKB: GABABR1 + GABABR2, oocytes, antagonist, measured using GABA as agonist, n = 4-6 oocytes; for Shift of the GABA concentration-response curve: CGP55845 at 50 nM, CGP54626 at 5 μM, FIG. 15B", "method": "Human heart cDNA was used as template together with the primers\nDual electrode voltage clamp (“GeneClamp”, Axon Instruments Inc., Foster City, Calif.) is performed using 3 M KCl-filled glass microelectrodes having resistances of 1-3 Mohms. […] Experiments are carried out at room temperature.\nFits were made with a Marquardt-Levenberg non-linear least-squares curve fitting algorithm."}, "rat GABABR2 (rat) [5]": {"target": "rat GABABR2 (rat) (UniProt O88871)", "assay": "cell-based or functional assay"}, "rat GABABR2 (rat) [6]": {"target": "rat GABABR2 (rat) (UniProt O88871)", "assay": "cell-based or functional assay", "remark": "listed apart in the source"}, "GABA receptors": {"tested_on": "GABA receptors", "settings": "in vivo; cited from earlier work"}, "[7]": {"settings": "rat, in vivo; cited from earlier work"}},
  "note": "“Also recorded” adds a separate entry of the source. Like-named read-outs stand apart in the source and are kept apart here.",
  "data": [
    {"compound": "C[C@H](NC[C@H](O)CP(=O)(O)CC1CCCCC1)c1ccc(Cl)c(Cl)c1", "note": "[[^3H]-CGP54626]", "values": [
      {"measurement": "Labeling of membranes by radioligand", "setting": "GABABR1; HEK293 or COS-7 cells expressing GABABR1", "result": "labeled"},
      {"measurement": "Labeling of membranes by radioligand", "setting": "GABABR2", "result": "not those expressing GABABR2"}
    ]},
    {"compound": "CCCCP(=O)(O)CCCN", "note": "[CGP36742]", "values": [
      {"measurement": "Performance in conditioned spatial color task", "setting": "[1]", "result": "improve"},
      {"measurement": "Learning performance", "setting": "[2]", "result": "improve learning performance"}
    ]},
    {"compound": "C[C@H](NC[C@H](O)CP(=O)(O)Cc1ccccc1)c1ccc(Cl)c(Cl)c1", "note": "[CGP55845]", "values": [
      {"measurement": "Block of GABA-elicited currents", "setting": "GABABR1b/GABABR2 [3]", "result": "completely blocked; also recorded: abolished"},
      {"measurement": "Binding profile compared with GABABR1 alone", "setting": "GABABR1/R2", "result": "not different from those transfected with GABABR1 alone"},
      {"measurement": "pKi", "setting": "GABABR1", "result": 8.7},
      {"measurement": "Block of baclofen-stimulated acidification response", "setting": "rat GABABR1/rat GABABR2", "result": "blocked"},
      {"measurement": "pKB", "setting": "GABABR1b/GABABR2 [4]", "result": 8.60},
      {"measurement": "Block of currents stimulated by GABA", "setting": "GABABR1b/GABABR2 [4]; oocytes, CGP55845 1 μM, reversible", "result": "completely blocked"},
      {"measurement": "Shift of the GABA concentration-response curve", "setting": "GABABR1b/GABABR2 [4]; oocytes", "result": "Right-ward shifts"}
    ]},
    {"compound": "pertussis toxin", "values": [
      {"measurement": "Block of baclofen-stimulated acidification response", "setting": "rat GABABR1/rat GABABR2", "result": "blocked"},
      {"measurement": "Effect on GABA-stimulated currents", "setting": "GABABR1b/GABABR2 [4]; oocytes injected with pertussis toxin 2 ng/oocyte 6 h before voltage clamping", "result": "abolished"}
    ]},
    {"compound": "rat GABABR1b (from UniProt Q9Z0U4 164-960) (receptor)", "values": [
      {"measurement": "Magnitude of GIRK currents stimulated by GABA, HEK-293, mean (pA)", "setting": "rat GABABR2 (rat) [5]", "result": 658, "unit": "pA"},
      {"measurement": "Magnitude of GIRK currents stimulated by GABA, oocytes, mean (nA)", "setting": "rat GABABR2 (rat) [5]", "result": 1400, "unit": "nA"},
      {"measurement": "agonist-evoked extracellular acidification rate, microphysiometer, co-transfected CHO cells", "setting": "rat GABABR2 (rat) [5]", "result": 9, "unit": "fold"},
      {"measurement": "Magnitude of GIRK currents stimulated by GABA, HEK-293, mean (pA)", "setting": "rat GABABR2 (rat) [6]", "result": 470, "unit": "pA"},
      {"measurement": "Magnitude of GIRK currents stimulated by GABA, oocytes, mean (nA)", "setting": "rat GABABR2 (rat) [6]", "result": 832, "unit": "nA"}
    ]},
    {"compound": "NCC(CP(=O)(O)O)c1ccc(Cl)cc1", "note": "(stereo not drawn) [phaclofen]", "values": [
      {"measurement": "Dopamine release in the ventral pallidum", "setting": "GABA receptors", "result": "increased dopamine release"}
    ]},
    {"compound": "C[C@H](NC[C@H](O)CP(=O)(O)CC1CCCCC1)c1ccc(Cl)c(Cl)c1", "note": "[CGP54626]", "values": [
      {"measurement": "Binding profile compared with GABABR1 alone", "setting": "GABABR1/R2", "result": "not different from those transfected with GABABR1 alone"},
      {"measurement": "pKi", "setting": "GABABR1", "result": 8.95},
      {"measurement": "pKB", "setting": "GABABR1b/GABABR2 [4]", "result": 7.48},
      {"measurement": "Shift of the GABA concentration-response curve", "setting": "GABABR1b/GABABR2 [4]; oocytes", "result": "Right-ward shifts"}
    ]},
    {"compound": "rat GABABR1a (from UniProt Q9Z0U4 20-960) (receptor)", "values": [
      {"measurement": "K+ (GIRK) currents in response to 100 µM GABA, HEK-293 cells", "setting": "rat GABABR2 (rat) [5]", "result": 1050, "unit": "pA"}
    ]},
    {"compound": "NCC(CC(=O)O)c1ccc(Cl)cc1", "note": "(stereo not drawn) [baclofen]", "values": [
      {"measurement": "Reinforcing effects of cocaine", "setting": "[7]", "result": "attenuate the reinforcing effects of cocaine"}
    ]},
    {"compound": "CC1(C)CO[C@@H](CC(=O)O)CN1", "note": "[SCH-50911]", "values": [
      {"measurement": "Binding profile compared with GABABR1 alone", "setting": "GABABR1/R2", "result": "not different from those transfected with GABABR1 alone"}
    ]},
    {"compound": "[Ba+2]", "note": "[Ba^++]", "values": [
      {"measurement": "Block of GABA-elicited currents", "setting": "GABABR1b/GABABR2 [3]", "result": "completely blocked"}
    ]}
  ]
}
